Assay results reported in paper PMC9822940, “Antiplasmodial activity, structure–activity relationship and studies on the action of novel benzimidazole derivatives” (Scientific Reports, 2023).
“And” between values parts separate entries of the source, which are not always exact repeats. Equal values may be shown once. Read-outs that look alike come from different tables or passages of the source.

What was measured:
P. falciparum HB3 strain = assay: Antiplasmodial activity against P. falciparum HB3 strain in culture; assay type: cell-based, Plasmodium falciparum; details: for SI (selectivity index): Vero CC50 versus HB3 IC50
Method: (§1) In vitro activity of BZ. All BZ derivatives were tested at 10 μM against the HB3 strain of Pf, and for those compounds with a percentage of growth inhibition (% GI) higher than 50%, the IC50 values were determined. In addition, their cytotoxicity on epithelial Vero cell cultures was evaluated to calculate their selectivity indexes (SI), Table 1. An index of 10 or above is expected for a lead compound.
(§2) The chloroquine-sensitive […] and chloroquine-resistance 7G8 strain […] of P. falciparum were used throughout. Infected erythrocytes were kept in culture using the protocol established by Haynes et al.[44], basically utilizing human O^+ erythrocytes kept in an RPMI medium supplemented with glutamine and 10% human serum incubated in an atmosphere of 90% N2, 5% O2 and 5% CO2.

[1] = Cytotoxicity on epithelial Vero cell cultures; assay type: cell-based; details: African green monkey, epithelial Vero cells
Method: as §1

[2] = tested on: plasma membrane of parasite culture / erythrocytes; assay: Propidium iodide incorporation assay (membrane integrity); assay type: cell-based, Plasmodium falciparum; details: 3 h incubation, fluorometry
Method: The integrity of the plasma membrane under the action of certain antiplasmodial compounds was assessed through the use of two methodologies. First, the absorption of propidium iodide, to which intact membranes are impermeable, was measured. Second, the presence of heme in the culture media, which indicates a leakage of the contents of the erythrocyte or its complete lysis (hemolysis), was analyzed.
Figure 3 Membrane integrity tests. BZ 1, 5, 16, 26 and 33 were tested in triplicates in two independent experiments. (a) Incorporation of propidium iodide (PI) was analyzed through fluorometry after 3 h incubation with the compounds. (b) Hemolysis was measured by light absorbance 24 h after exposure to the compounds. One-way ANOVA with Turkey´s comparison was used for analysis of significance. ****p < 0.001.
Manufacturer’s instructions (BD PharmingenTM) were followed. Briefly, 200 µL of parasite culture at 2% parasitemia or uninfected erythrocytes, at 2% hematocrit, were incubated with each compound for 3 h at 37 °C. Untreated samples were cultured in the same plate. After incubation, 2 µL of Propidium Iodide was added and incubated for 15 min at RT while protected from light. Fluorescence was read in a fluorometer at excitation and emission wavelengths of 485/20 and 645/40 nm, respectively.

[3] = tested on: P. falciparum-infected cultures; assay: Intracellular reactive oxygen species (ROS) production in P. falciparum; assay type: cell-based, Plasmodium falciparum; details: 1 µM; 0.5, 6 and 9 h
Method: Also, the intracellular production of oxygen reactive species (ROS) was monitored for the same antiplasmodial compounds. The level of ROS production was compared between the samples and that of the untreated parasites. […] This would point to the conformation of such molecules targeting a specific molecule or process of the parasite.  Figure 4 Effect of selected benzimidazole derivatives on ROS production. Five potent compounds were incubated with P. falciparum-infected cultures and the production of reactive oxygen species was measured through fluorometry at 0.5, 6 and 9 h after their addition at 1 µM. As positive control, a sample containing hydrogen peroxide at 200 μM was added. Samples were measured in triplicates. One-way ANOVA with Turkey´s comparison was used to measure significance with respect to the untreated control at each different time point. n = 2. (a) BZ 1, (b) BZ 5, (c) BZ 16, (d) BZ 26 and (e) BZ 33. *p < 0.05, **p < 0.01, ***p < 0.005. Intracellular ROS formation was measured in a fluorimeter using the CM-H2DCFDA reactive dye from Molecular Probes® (Eugene OR, USA). Hydrogen peroxide was used as a positive control at a final concentration of 200 µM. The level of ROS present was inferred through the amount of oxidized DCF[45].

Vero cells = assay: Cytotoxicity on epithelial Vero cell cultures; assay type: cell-based; details: Vero cells
Method: as §1

[4] = tested on: 7G8 P. falciparum parasites; assay: Antiplasmodial activity against chloroquine-resistant 7G8 P. falciparum; assay type: cell-based, Plasmodium falciparum; details: for IC50: Plasmodium falciparum
From the text: The mechanism used by Pf to prevent intoxication with free heme once hemoglobin is degraded is to form hemozoin crystals that capture heme. Mefloquine and other common antimalarials interfere with this pathway, resulting in the death of the parasite.
as §2

[5] = Plasmodium falciparum, HB3 strain (chloroquine-sensitive), read-out: IC50
[6] = Plasmodium falciparum, at 10 μM, HB3 strain, read-out: GI (growth inhibition percentage)
[7] = HB3 strain (chloroquine-sensitive), read-out: IC50

SMILES	GI (growth inhibition percentage) (P. falciparum HB3 strain; at 10 μM, HB3 strain)	IC50 (P. falciparum HB3 strain; [5])	inhibition at 10 µM (P. falciparum HB3 strain; [6])	CC50 [1]	also measured
Cc1ccc2[nH]c(NC(=O)c3cccnc3)nc2c1 [BZ 2]	inactive and 0.0%				
Cc1ccc2[nH]c(NC(=O)c3ccncc3)nc2c1 [BZ 3]	inactive and 0.0%				
Cc1ccc2[nH]c(NC(=O)c3ncccc3C)nc2c1 [BZ 4, 3-Methyl-N-(5-methyl-1H-benzimidazol-2-yl)picolinamide]		2.5 µM	92.4%	6.8 µM	SI (selectivity index) (P. falciparum HB3 strain): 2.8; melting point: 173 °C
Cc1ccc(C(=O)Nc2nc3cc(C)ccc3[nH]2)nc1 [BZ 5, 5-Methyl-N-(5-methyl-1H-benzimidazol-2-yl)picolinamide]		1.5 µM	100%	4.5 µM	Membrane integrity: incorporation of propidium iodide [2]: some permeation in the membrane, although not significant; Intracellular ROS production versus untreated parasites [3]: no significant difference at any point; melting point: 256 °C
CCCCc1ccc(C(=O)Nc2nc3cc(C)ccc3[nH]2)nc1 [BZ 6, 5-Butyl-N-(5-methyl-1H-benzimidazol-2-yl)picolinamide]		2.4 µM	90.9%	6.6 µM	SI (selectivity index) (P. falciparum HB3 strain): 2.7; melting point: 245 °C
Cc1ccc2[nH]c(NC(=O)c3ccc(-c4ccccc4)cn3)nc2c1 [BZ 7]	57.5%				IC50 (P. falciparum HB3 strain; [7]): 7.8 µM; CC50 (Vero cells): 19.5 µM
Cc1ccc2[nH]c(NC(=O)c3ccc(C#N)cn3)nc2c1 [BZ 8]	inactive and 37.4%				
Cc1ccc2[nH]c(NC(=O)c3ccc4ccccc4n3)nc2c1 [BZ 9]	73.1%				IC50 (P. falciparum HB3 strain; [7]): 14.1 µM; CC50 (Vero cells): 63 µM
Cc1ccc2[nH]c(NC(=O)c3ccnc4ccccc34)nc2c1 [BZ 10]	60.5%				
Cc1ccc2[nH]c(NC(=O)c3nccc4ccccc34)nc2c1 [BZ 11]	0.0%				
O=C(Nc1nc2cc(Cl)ccc2[nH]1)c1ccccn1 [BZ 12, N-(5-chloro-1H-benzimidazol-2-yl)picolinamide]		1.8 µM	91.4%	15.4 µM	SI (selectivity index) (P. falciparum HB3 strain): 8.7; IC50 ([4]; 7G8 strain (chloroquine-resistant), read-out: 7G8 Pf IC50): 3.6 µM; SI (selectivity index) ([4]; Vero CC50 versus 7G8 IC50): 4.2
Cc1cccnc1C(=O)Nc1nc2cc(Cl)ccc2[nH]1 [BZ 13, N-(5-Chloro-1H-benzimidazol-2-yl)-3-methylpicolinamide]		2.8 µM	87.3%	8.6 µM	SI (selectivity index) (P. falciparum HB3 strain): 3.0; melting point: 180 °C
O=C(Nc1nc2cc(Cl)ccc2[nH]1)c1ncccc1Cl [BZ 14]	11.9%				
COc1ccnc(C(=O)Nc2nc3cc(Cl)ccc3[nH]2)c1 [BZ 15, N-(5-Chloro-1H-benzimidazol-2-yl)-4-methoxypicolinamide]		1.5 µM	89.8%	2 µM	SI (selectivity index) (P. falciparum HB3 strain): 1.4; melting point: 245 °C
CCCCc1ccc(C(=O)Nc2nc3cc(Cl)ccc3[nH]2)nc1 [BZ 17]	89.7%				IC50 (P. falciparum HB3 strain; [7]): 3.5 µM; CC50 (Vero cells): 3.4 µM
O=C(Nc1nc2cc(Cl)ccc2[nH]1)c1ccc(-c2ccccc2)cn1 [BZ 18, N-(5-Chloro-1H-benzimidazol-2-yl)-5-phenylpicolinamide]		2.3 µM	99.2%	0.6 µM	SI (selectivity index) (P. falciparum HB3 strain): 0.3; melting point: 214 °C

SMILES	GI (growth inhibition percentage) (P. falciparum HB3 strain; at 10 μM, HB3 strain)	IC50 (P. falciparum HB3 strain; [5])	inhibition at 10 µM (P. falciparum HB3 strain; [6])	CC50 [1]	also measured
Cc1cccc(C(=O)Nc2nc3cc(Cl)ccc3[nH]2)n1 [BZ 19]	inactive and 28.0%				
O=C(Nc1nc2cc(Cl)ccc2[nH]1)c1ccc2ccccc2n1 [BZ 20]	25.9%				
O=C(Nc1nc2cc(Cl)ccc2[nH]1)c1cnc2ccccc2c1 [BZ 21]	0.0%				
O=C(Nc1nc2cc(Cl)ccc2[nH]1)c1ccnc2ccccc12 [BZ 22, N-(5-Chloro-1H-benzimidazol-2-yl)quinoline-4-carboxamide]		2.3 µM	88.9%	16.1 µM	SI (selectivity index) (P. falciparum HB3 strain): 6.9; melting point: 262 °C
O=C(Nc1nc2cc(Cl)ccc2[nH]1)c1nccc2ccccc12 [BZ 23]	53.7%				
COc1ccc2nc(C(=O)Nc3nc4cc(Cl)ccc4[nH]3)ccc2c1 [BZ 24]	22.3%				
COc1ccc2[nH]c(NC(=O)c3ccccn3)nc2c1 [BZ 25]	50.9%				
CCCCc1ccc(C(=O)Nc2nc3cc(OC)ccc3[nH]2)nc1 [BZ 27, 5-Butyl-N-(5-methoxy-1H-benzimidazol-2-yl)picolinamide]		1.2 µM	100%	8.5 µM	SI (selectivity index) (P. falciparum HB3 strain): 7.4; melting point: 129 °C
COc1ccc2[nH]c(NC(=O)c3ccc(-c4ccccc4)cn3)nc2c1 [BZ 28]	72.7%				IC50 (P. falciparum HB3 strain; [7]): 4.4 µM; CC50 (Vero cells): 14.6 µM
O=C(Nc1nc2cc([N+](=O)[O-])ccc2[nH]1)c1ccccn1 [BZ 29]	96.0%				IC50 (P. falciparum HB3 strain; [7]): 5.1 µM; CC50 (Vero cells): 13.9 µM
CCCCCCCCC(NC(=O)OC(C)(C)C)C(=O)Nc1ccc2[nH]c(NC(=O)c3ccccn3)nc2c1 (centres unmarked) [BZ 31]					IC50 (P. falciparum HB3 strain; [7]): 8.5 µM; CC50 (Vero cells): 26.8 µM
CCCCCCCCC(N)C(=O)Nc1ccc2[nH]c(NC(=O)c3ccccn3)nc2c1 (centres unmarked) [BZ 32]					IC50 (P. falciparum HB3 strain; [7]): 6.8 µM; CC50 (Vero cells): 16.4 µM
CCCCc1ccc(C(=O)Nc2nc3cc(C)c(C)cc3[nH]2)nc1 [BZ 34]	74.2%				IC50 (P. falciparum HB3 strain; [7]): 3.4 µM; CC50 (Vero cells): 3.2 µM
Cc1cc2nc(NC(=O)c3ccc(-c4ccccc4)cn3)[nH]c2cc1C [BZ 35]	64.7%				IC50 (P. falciparum HB3 strain; [7]): 7.3 µM; CC50 (Vero cells): 9.7 µM
O=C(Nc1nc2cc(Cl)c(Cl)cc2[nH]1)c1ccccn1 [BZ 36, N-(5,6-Dichloro-1H-benzimidazol-2-yl)picolinamide]		2.4 µM	81.9%	11.8 µM	SI (selectivity index) (P. falciparum HB3 strain): 5.0; melting point: 281 °C
CCN(CC)CCCC(C)Nc1ccnc2cc(Cl)ccc12 (centres unmarked) [Chloroquine, reference compound]					IC50 (P. falciparum HB3 strain; Plasmodium falciparum, HB3): 0.028 µM; inhibition at 10 µM (P. falciparum HB3 strain; Plasmodium falciparum, HB3, read-out: GI (growth inhibition percentage)): 100%; IC50 ([4]; 7G8, read-out: 7G8 Pf IC50): 0.23 µM
